The results in this text go back to patent publication US11059825B2, “CXCR7 antagonists” (CHEMOCENTRYX, INC., priority 2012, dated 2021).

The target of test [1] is T1, CXCR7 receptor (Homo sapiens (Human), UniProt P25106). As to the kind of experiment: Serum Binding Analysis: displacement of 125I SDF-1 from CXCR7 in 100% human serum. The settings on record: 100% human serum (human AB serum with 10 mM HEPES), MCF-7 and/or MDA-MB-435S CXCR7 transfected cells, 125I SDF-1, 3 hrs at 4° C.; read-out: Avg Ser IC50. The protocol: (§1) The ability of the compounds to displace the labeled chemokine from the CXCR7 receptor sites at multiple concentrations was then determined with the screening process.
T1 sequence (P25106 whole entry): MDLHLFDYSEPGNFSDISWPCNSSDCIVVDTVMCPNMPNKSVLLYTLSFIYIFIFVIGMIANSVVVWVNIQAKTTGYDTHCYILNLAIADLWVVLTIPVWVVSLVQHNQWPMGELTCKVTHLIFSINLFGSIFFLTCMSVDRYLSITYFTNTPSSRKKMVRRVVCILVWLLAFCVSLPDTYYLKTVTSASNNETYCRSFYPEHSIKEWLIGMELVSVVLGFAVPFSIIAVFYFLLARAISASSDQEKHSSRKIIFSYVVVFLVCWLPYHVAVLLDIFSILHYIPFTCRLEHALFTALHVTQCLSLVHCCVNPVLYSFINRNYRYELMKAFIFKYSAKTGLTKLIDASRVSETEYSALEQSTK
(§2) ^125I-labeled SDF-1 was purchased from Perkin-Elmer Life Sciences, Inc. (Boston, Mass.). The MCF-7 (adenocarcinoma; mammary gland) cell line was obtained from the American Type Culture Collection (ATCC, Manassas, Va.) or and was cultured in DMEM (Mediatech, Herndon, Va.) supplemented with 10% fetal bovine serum (FBS) (HyClone Logan, Utah) and bovine insulin (0.01 mg/mL) (Sigma, St. Louis, Mo.) at 37° C. in a humidified incubator at a 5% CO2/air mixture. CXCR7 transfected MDA-MB-435S were produced as described below. MDA-MB-435 S human breast cancer line, was purchased from ATCC, and cultured in DMEM/10% FBS medium. The complete coding sequence of the gene encoding CXCR7 (a.k.a. CCXCKR2, hRDC1), was isolated from MCF-7 cells using MACs mRNA isolation kit (Miltenyi Biotec, Auburn, Calif.). DNA contamination was removed by DNase digestion via RNeasy columns (Qiagen, Inc., Valencia, Calif.) and cDNA was generated using GeneAmp RNA PCR Core Kit (Applied Biosystems, Foster City, Calif.). PCR of cDNA samples was performed using Taq PCR Master Mix kit (Qiagen, Inc.) and hRDC1 primers harboring 5′ and 3′ Not I sites (hRDC1F 5′ […]-3′, hRDC1R 5′-[…]-3′) Not I digested PCR product was ligated into Not I digested pcDNA3.1 (+)(Invitrogen, Carlsbad, Calif.) and screened for orientation and sequence confirmed. Plasmid DNA was then isolated from overnight bacterial cultures by Maxiprep (Qiagen, Inc.). Plasmid DNA (10 μg) was added to MDA-MB-435s cells and cells were electroporated (0.22 kV, 960 uF) via Gene Pulser (Biorad laboratories, Hercules, Calif.). 48 hr post-electroporation, cells were transferred to selection medium (600 ug/ml G418).
In order to more properly assess the binding efficacy of the compounds, radioligand binding assays were carried out in the presence of 100% human serum to more accurately reflect the in vivo environment. […] Target compounds were tested to determine their ability to bind with CXCR7 sites on MCF-7 and/or MDA-MB-435S CXCR7 transfected cells. Efficiency-maximized radioligand binding using filtration protocols as described in Dairaghi D J, et al., HHV8-encoded vMIP-I selectively engages chemokine receptor CCR5. Agonist and antagonist profiles of viral chemokines., J. Biol. Chem. 1999 Jul. 30; 274(31): 21569-74 and Gosling J, et al., Cutting edge: identification of a novel chemokine receptor that binds dendritic cell- and T cell-active chemokines including ELC, SLC, and TECK., J. Immunol. 2000 Mar. 15; 164(6):2851-6 was used.
In these assays, MCF-7 and/or MDA-MB-435S cells were interrogated with the target compounds and the ability of these compounds to displace 125 I radiolabeled SDF-1 was assessed using the protocol described in Dairaghi and Gosling. The target compounds were added to the plate to the indicated concentration followed by addition of cells and radiolabeled chemokine (125I SDF-1), both in the following medium (human AB serum with 10 mM HEPES added to stabilize at pH 7.4). All assays were then incubated for 3 hrs at 4° C. with gentle agitation. Following incubation in all binding assays, reactions were aspirated onto PEI-treated GF/B glass filters (Packard) using a cell harvester (Packard) and washed twice (25 mM HEPES, 500 mM NaCl, 1 mM CaCl2, 5 mM MgCl2, adjusted to pH 7.1). Scintillant (MicroScint 10, Packard) was added to the wells, and the filters were counted in a Packard Topcount scintillation counter. Data were analyzed and plotted using GraphPad Prism (GraphPad Software).

The target of test [2] is T1, CXCR7 receptor. As to the kind of experiment: Buffer Binding Analysis: displacement of 125I-labeled SDF-1 from CXCR7 on cells. The following applies: buffer binding medium, MCF-7 and/or MDA-MB-435S CXCR7 transfected cells, 125I SDF-1, 3 hr at 4° C.; read-out: Avg Bind IC50. How it is done:
as §1, §2
Target compounds can be tested to determine their ability to bind with CXCR7 sites on MCF-7 and/or MDA-MB-435S CXCR7 transfected cells. Efficiency-maximized radioligand binding using filtration protocols as described in Dairaghi D J, et al., HHV8-encoded vMIP-1 selectively engages chemokine receptor CCR5. Agonist and antagonist profiles of viral chemokines., J. Biol. Chem. 1999 Jul. […]
In these assays, MCF-7 and/or MDA-MB-435S cells are interrogated with the target compounds and the ability of these compounds to displace ^125I radiolabeled SDF-1 assessed using the protocol described in Dairaghi and Gosling. […] Scintillant (MicroScint 10, Packard) is added to the wells, and the filters counted in a Packard Topcount scintillation counter. Data are analyzed and plotted using GraphPad Prism (GraphPad Software).

Test [3] relates to C6 cells implanted into the brains of Sprague-Dawley rats. As to the kind of experiment: Rat C6 model of glioblastoma. The format is in vivo. The following applies: tumors irradiated after 7 days with 5-20 Gy, then treated with compound. The protocol:
Many tumor models in animals are known in the art, and may be employed to evaluate a compound of instance. For instance, in a rat C6 model of glioblastoma, 1×10^6 C6 cells were implanted by stereotactic injection into the into the brains of Sprague-Dawley rats. After 7 days tumors were irradiated with between 5-20 Gy of radiation. Following irradiation rats were treated (eg via subcutaneous, intraperitoneal, oral, parenteral or other route) with compound or vehicle control and tumors are allowed to progress. Animals were followed until death or loss of >20% weight, or removed for tumor induced neurodeficits eg seizures and immobility in according with appropriate regulations and standards.

The structures appear in SMILES notation.

Take `CN(C)c1cnc(C(=O)N[C@H]2CCN(c3nccn4cccc34)C2)nc1` [Compound 1.049]: the IC50 on CXCR7 receptor [1] is at most 500 nM.

On to `O=C(N[C@H]1CCN(c2nccn3ccnc23)C1)c1csc(N2CCC3(CC3)C(O)C2)n1` (stereo partly shown) [Compound 1.047], for which the IC50 at CXCR7 receptor [1] was 2500 to 15000 nM.

For the compound `O=C(N[C@H]1CCN(c2nccn3ccnc23)C1)c1noc(-c2ccccc2)n1` [Compound 1.121], the IC50 at CXCR7 receptor [2] and at CXCR7 receptor [1] was at most 500 nM throughout.

`O=C(N[C@H]1CCN(c2nccn3ccnc23)C1)c1ncn(-c2ccc(F)cc2)n1` [Compound 1.090]: in test [3], the “antitumor activity (delay in tumor growth vs vehicle treated control; Kaplan Meier analysis of survival)” value is “profound antitumor activity”.

As to `O=C(N[C@H]1CCN(c2nccn3cccc23)C1)c1ccn(-c2ccc(F)cc2)n1` [Compound 1.128], the IC50 at CXCR7 receptor [2] and on CXCR7 receptor [1] was at most 500 nM throughout.

`O=C(N[C@H]1CCN(c2nccn3cccc23)C1)c1csc(N2CCC(O)CC2)n1` [Compound 1.098]: the IC50 at CXCR7 receptor [2] and at CXCR7 receptor [1] was at most 500 nM each time.

As for `O=C(N[C@H]1CCN(c2nccn3cnnc23)C1)c1ncn(-c2ccccc2)n1` [Compound 1.127], the IC50 at CXCR7 receptor [1] lay in the range of 500 to 2500 nM.

Take `Cc1ccn2ccnc(N3CC[C@H](NC(=O)c4csc(N5CCC(O)CC5)n4)C3)c12` [Compound 1.097]: the IC50 on CXCR7 receptor [2] and on CXCR7 receptor [1] was at most 500 nM in each case.

Consider `O=C(N[C@@H]1CCN(c2nccn3ccnc23)C1)c1ncn(-c2ccccc2)n1` [Compound 1.027], for which the IC50 at CXCR7 receptor [1] was 500 to 2500 nM.
